Biological target: T1, mOTOP1 (Mus musculus, UniProt Q80VM9)
T1 construct: gene Otop1; full length in HEK-293 / PAC-KO cells; homodimer
T1 sequence (Q80VM9 1-600): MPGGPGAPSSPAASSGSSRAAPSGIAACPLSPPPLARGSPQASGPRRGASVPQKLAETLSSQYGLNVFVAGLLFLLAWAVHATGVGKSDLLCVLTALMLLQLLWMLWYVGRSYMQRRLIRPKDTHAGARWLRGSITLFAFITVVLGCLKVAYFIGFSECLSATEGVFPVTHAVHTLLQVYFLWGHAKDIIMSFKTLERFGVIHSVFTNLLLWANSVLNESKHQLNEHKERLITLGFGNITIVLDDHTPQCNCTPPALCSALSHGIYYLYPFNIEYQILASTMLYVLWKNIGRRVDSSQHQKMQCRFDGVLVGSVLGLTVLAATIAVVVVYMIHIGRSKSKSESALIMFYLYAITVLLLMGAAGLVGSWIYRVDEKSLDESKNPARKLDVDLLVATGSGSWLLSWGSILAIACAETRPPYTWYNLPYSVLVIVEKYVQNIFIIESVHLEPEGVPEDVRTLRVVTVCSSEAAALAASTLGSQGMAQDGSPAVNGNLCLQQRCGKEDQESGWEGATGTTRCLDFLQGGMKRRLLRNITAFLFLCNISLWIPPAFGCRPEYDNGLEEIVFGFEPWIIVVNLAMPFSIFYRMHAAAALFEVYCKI
Assay: whole-cell patch clamp, inward current in HEK-293
Format: cell-based

## N [NH4Cl]
  EC50: 18.7 mM
